# Where two headings read alike, the source gives them in different places.
# How the values were obtained:
# TAAR5 [1] = target: T1, TAAR5 (Homo sapiens, UniProt O14804); assay: Antagonist screen of odor library on TAAR5 with agonist TMA (Dual-Glo luciferase assay, Hana3A cells); type: cell-based; set-up: TAAR open reading frames were amplified from pooled human genomic DNA using Phusion polymerase and subcloned into a pCI expression vector; Rho tag (first 20 residues of human rhodopsin); expressed in transfected cells; host or cells: Hana3A cells; conditions: for inhibition at 30 µM: read-out: Percent Inhibition
# T1 sequence (O14804 1-337): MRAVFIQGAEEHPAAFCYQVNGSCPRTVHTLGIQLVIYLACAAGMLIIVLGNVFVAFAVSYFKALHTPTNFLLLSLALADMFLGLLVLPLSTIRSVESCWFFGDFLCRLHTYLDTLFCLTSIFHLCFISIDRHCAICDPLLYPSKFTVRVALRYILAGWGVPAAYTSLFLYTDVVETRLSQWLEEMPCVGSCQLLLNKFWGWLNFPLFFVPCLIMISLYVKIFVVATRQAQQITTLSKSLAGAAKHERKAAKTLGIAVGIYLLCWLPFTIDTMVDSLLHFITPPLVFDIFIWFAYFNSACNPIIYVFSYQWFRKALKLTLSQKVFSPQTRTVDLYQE
# Experimental: We screened a TAAR of interest, TAAR5, with the agonist TMA added at the EC80 concentration, against a proprietary small-molecule library to identify antagonists. TAAR open reading frames were amplified from pooled human genomic DNA using Phusion polymerase and subcloned into a pCI expression vector (Promega) containing the first 20 residues of human rhodopsin (Rho tag). […] Hana3A cells were transfected with 5 ng/well of RTP1S, 5 ng/well of pRL-SV40, 10 ng/well of CRE-luciferase, 2.5 ng/well of M3, and 5 ng/well of odorant receptor. 1M odorant stocks were diluted in DMSO. 24 hours following transfection, transfection media was removed and replaced with the appropriate concentration of odor diluted from the 1M stocks in CD293 (Gibco). Four hours following odor stimulation luminescence was measured using a Synergy 2 plate reader (Biotek). All luminescence values were divided by the Renilla Luciferase activity to control for transfection efficiency in a given well.
# We completed an antagonist screen of a proprietary library of odors, including the 52 odorous compounds identified in FIG. 4 at a concentration of 30 μM.
# TAAR5 [2] = target: T1, TAAR5; assay: Dose responses on TAAR5 in luciferase assay (antagonist dose-dependent inhibition with TMA at EC80; TMA dose response with antagonist at IC10, IC30, IC50); type: cell-based; set-up: TAAR open reading frames were amplified from pooled human genomic DNA using Phusion polymerase and subcloned into a pCI expression vector; Rho tag (first 20 residues of human rhodopsin); expressed in transfected cells; host or cells: Hana3A cells; conditions: for IC10 concentration of antagonist: lowest of the three concentrations in FIG. 2; for IC30 concentration of antagonist: middle of the three concentrations in FIG. 2
# From the text: We screened a TAAR of interest, TAAR5, with the agonist TMA added at the EC80 concentration, against a proprietary small-molecule library to identify antagonists. TAAR open reading frames were amplified from pooled human genomic DNA using Phusion polymerase and subcloned into a pCI expression vector (Promega) containing the first 20 residues of human rhodopsin (Rho tag). The sequences of the cloned receptors were verified by sequencing (3730xl Sequencer, ABI Biosystems). We used the Dual-Glo™ Luciferase Assay System (Promega) to measure receptor responses as previously described in Trimmer, C. et al 2014 High-throughput Analysis of Mammalian Olfactory Receptors: Measurement of Receptor Activation via Luciferase Activity. Journal of Visualized Experiments, (88). doi:10.3791/51640. Hana3A cells were transfected with 5 ng/well of RTP1S, 5 ng/well of pRL-SV40, 10 ng/well of CRE-luciferase, 2.5 ng/well of M3, and 5 ng/well of odorant receptor. 1M odorant stocks were diluted in DMSO. 24 hours following transfection, transfection media was removed and replaced with the appropriate concentration of odor diluted from the 1M stocks in CD293 (Gibco). Four hours following odor stimulation luminescence was measured using a Synergy 2 plate reader (Biotek). All luminescence values were divided by the Renilla Luciferase activity to control for transfection efficiency in a given well.
# In a secondary experiment, we ran dose dependent inhibition responses for the top twelve antagonists, i.e., the top 12 compounds identified in FIG. 4. TMA was kept at the EC80 (500 μM) and the twelve antagonists were diluted in a dose response with the highest concentration at 1000 μM. The top five candidate compounds, i.e., phenethyl benzoate, trans-2-nonen-1-ol, isoeugenyl phenlacetate, tributyl-2-acetylcitrate, bis(2-methyl-3-furyl)disulfide, were rescreened using an antagonist dose response at 2500 μM. We determined the IC80 values for those five antagonists. Using those IC80 values, we completed a 3-fold dilution dose response of TMA, starting at 3000 μM, in the presence of our five candidate antagonists. […] It was difficult to determine if the five antagonists were competitive or non-competitive inhibitors using the very high IC80 concentrations of the antagonists.
# In another experiment, we evaluated dose responses of TMA in the presence of the antagonist at their IC10, IC30 and IC50 concentrations.
# [3] = system: human perception of TMA odor ("fishy"); assay: Human perceptual ratings of fishiness of TMA with antagonist or control odor (air-dilution olfactometer); type: in vivo; conditions: human subjects, TMA 3 mM, 1 mM, 0.33 mM, odors intensity-balanced to 1 mM TMA
# Experimental: We evaluated the efficacy of the in vitro antagonists on human perception. We asked 10 (FIG. 5A) or 29 (FIG. 5B) subjects to rate how “fishy” and how “pleasant” an odor was. The odors were delivered to the subject using an air-dilution olfactometer (Lundström, J. N., et al., 2010 International Journal of Psychophysiology, 78(2), 179-189; doi:10.1016/j.ijpsycho.2010.07.007) and each trial consisted of one concentration of trimethylamine (either 3 mM, 1 mM, 0.33 mM, or a water blank) combined with either an antagonist or a solvent blank. Subjects used a general labeled magnitude scale to rate how “fishy” the odor smelled and a scale from −10 to +10 to rate the pleasantness.
# The antagonists and control odors were intensity-balanced to match the 1 mM concentration of TMA. Trans-2-nonen-1-ol was diluted in Diethyl phthalate (DEP); TMA was diluted in water with NaOH added; Linalool was diluted in DEP. In all trials subjects received air from jars containing water and DEP so that solvent presence could not be used as a cue to the presence of the test odor.
# TAAR5 [4] = target: T1, TAAR5; conditions: cited from earlier work
# [5] = system: human perception of TMA odor (mixture suppression); assay: Split-nostril experiment, physical vs dichorhinic mixtures with TMA; type: in vivo; conditions: human subjects, TMA with probe odorant
# From the text: Mixture suppression has both a central and peripheral component (Laing, D., & Willcox, M. (1987). An investigation of the mechanisms of odor suppression using physical and dichorhinic mixtures. Behavioural Brain Research, 26(2-3), 79-87. http://doi.org/10.1016/0166-4328(87)90157-4). […] To test this we carried out split-nostril experiments using stimuli in glass jars. We compared TMA-alone, TMA mixed with the probe odorant in the same nostril (physical mixture), and TMA mixed with the probe odorant in different nostrils (dichorhinic mixture) (FIG. 7). […] Subjects were instructed to make intensity judgements during inhalation to avoid retronasal contamination across nostrils. This allowed us to separate central and peripheral components of the mixture suppression.
# [6] = inhibition of TMA/TAAR5 response, test odor at 30 μM, TMA at EC80
# [7] = TAAR5 luciferase, vs TMA, highest of the three concentrations in FIG. 2, read-out: IC50 concentration of antagonist
Molecule,inhibition at 30 µM (TAAR5 [1]; [6]) [%],IC50 (TAAR5 [2]; [7]) [µM],"IC10 concentration of antagonist (TAAR5 [2]; TAAR5 luciferase, vs TMA) [µM]","IC30 concentration of antagonist (TAAR5 [2]; TAAR5 luciferase, vs TMA) [µM]",other results
Cc1occc1SSc1ccoc1C [Bis(2-Methyl-3-furyl) disulfide],88.3,158,31.62,77.62,
C/C=C/c1ccc(OC(=O)Cc2ccccc2)c(OC)c1 [Isoeugenyl phenylacetate],89.1,,100,316.22,IC50 (TAAR5 [2]): 703 µM; effect on perceived fishy rating of TMA ([3]; listed as Isoeugenyl Phenylacetate): showed a similar pattern; effect on perceived fishy rating of TMA ([3]; listed as isoeugenyl phenylacetate): decreases fishy intensity
O=C(OCCc1ccccc1)c1ccccc1 [Phenethyl benzoate],93.5,479,50.11,251.19,
"CN(C)C [TMA, trimethylamine, reference compound]",,,,,EC80 of agonist on TAAR5 (TAAR5 [2]; TAAR5 luciferase): 500 µM; activation of human TAAR5 (TAAR5 [4]): activated in a concentration-dependent manner
CCCCCC/C=C/CO [Trans-2-Nonen-1-ol],89.3,703,100,316.22,peripheral component of mixture suppression [5]: larger peripheral component of mixture suppression than the control odorant linalool; effect on perceived fishy rating of TMA ([3]; listed as Trans-2-nonen-1-ol): significantly decreased the perceived fishy rating; effect on perceived fishy rating of TMA ([3]; listed as trans-2-nonen-1-ol): decreases fishy intensity
"C=CC(C)(O)CCC=C(C)C (stereo not shown) [linalool, reference compound]",,,,,in vitro antagonism (TAAR5 [1]; hTAAR5): did not show in vitro antagonism; effect on perceived fishy rating of TMA [3]: no effect on these fishy ratings; effect on perceived fishy rating of TMA ([3]; listed as Linalool): does not
"O=C1CCCC=CCCCCCCCCCC1 [velvione, 5-Cyclohexadecen-1-one]",76,,,,
Tributyl-2-Acetylcitrate,,242,74.14,194.98,Percent Inhibition (TAAR5 [1]; [6]): 87.83%

# Reference: patent US20180021467A1, “METHOD OF BLOCKING PERCEPTION OF MALODOR” (Monell Chemical Senses Center, priority 2015, published 2018)
